From PubChem BioAssay (NCI)
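Compound exposure: 48 hours, 5 concentrations, 96-well plates. At the TGI there is no net growth.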

The molecules below were run on 786-0 renal (assay: NCI tumour cell line growth inhibition, 48 h).
In the case of O=C1Nc2nc3ccccc3n2N=C2CCCC12 (stereo not given), the TGI is reported as > 100 µM. O=c1c2ccccc2c(=O)n2n1CC=CC2 was tested, and the TGI was > 100 µM. With c1cc2n(n1)CCN2 the TGI was > 7100 µM. Molecule O=CN/C=C/c1cccc(O)c1 has a TGI of 83.7 µM. For Nc1ccc2c(SCc3ccc([N+](=O)[O-])cc3)c3ccccc3nc2c1, the TGI was 20.1 µM. In the case of O=C1C2C3C=C4c5ccccc5N(c5ccccc5)C4(C2C(=O)N1c1ccc(Cl)cc1)[C@H]1C(=O)N(c2ccc(Cl)cc2)C(=O)[C@@H]31 (stereo not given in full), the TGI is reported as > 100 µM. With CCN(CC)CCOc1ccc(CCc2cc(OC)c(OC)c(OC)c2)cc1 the TGI was > 100 µM. With O=c1[nH]nc2ccccc2c1Cc1ccccc1 the TGI was > 100 µM. For O=C(CC(=O)C1=CNc2ccccc2S1)C(=O)Nc1ccc(Cl)cc1, the TGI was > 50 µM. Cc1oc2c(C)c3oc(=O)cc(C)c3cc2c1CN1C(=O)C2OCCOCCOCCOCCOCCO[C@H]2C1=O (stereo not given in full) was tested, and the TGI was > 100 µM. With COC(=O)c1ccccc1OCc1cc(=O)oc2ccc(C)cc12 the TGI was > 100 µM.

What follows are molecules tested on EKVX NSCLC (assay: NCI tumour cell line growth inhibition, 48 h).
O=C1Nc2nc3ccccc3n2N=C2CCCC12 (stereo not given) was tested, and the TGI was > 100 µM. In the case of O=c1c2ccccc2c(=O)n2n1CC=CC2, the TGI is reported as > 100 µM. c1cc2n(n1)CCN2 showed a TGI of 6630 µM. O=CN/C=C/c1cccc(O)c1 was tested, and the TGI was > 96.6 µM. Nc1ccc2c(SCc3ccc([N+](=O)[O-])cc3)c3ccccc3nc2c1 showed a TGI of 59 µM. With O=C1C2C3C=C4c5ccccc5N(c5ccccc5)C4(C2C(=O)N1c1ccc(Cl)cc1)[C@H]1C(=O)N(c2ccc(Cl)cc2)C(=O)[C@@H]31 (stereo not given in full) the TGI was > 100 µM. In the case of CCN(CC)CCOc1ccc(CCc2cc(OC)c(OC)c(OC)c2)cc1, the TGI is reported as > 100 µM. O=c1[nH]nc2ccccc2c1Cc1ccccc1 was tested, and the TGI was > 100 µM. In the case of O=C(CC(=O)C1=CNc2ccccc2S1)C(=O)Nc1ccc(Cl)cc1, the TGI is reported as > 50 µM. For Cc1oc2c(C)c3oc(=O)cc(C)c3cc2c1CN1C(=O)C2OCCOCCOCCOCCOCCO[C@H]2C1=O (stereo not given in full), the TGI was > 100 µM. In the case of COC(=O)c1ccccc1OCc1cc(=O)oc2ccc(C)cc12, the TGI is reported as > 100 µM.

The molecules below were run on HCT-116 colon (assay: NCI tumour cell line growth inhibition, 48 h).
In the case of O=C1Nc2nc3ccccc3n2N=C2CCCC12 (stereo not given), the TGI is reported as > 100 µM. With O=c1c2ccccc2c(=O)n2n1CC=CC2 the TGI was > 100 µM. In the case of c1cc2n(n1)CCN2, the TGI is reported as > 10000 µM. With O=CN/C=C/c1cccc(O)c1 the TGI was 75.6 µM. Nc1ccc2c(SCc3ccc([N+](=O)[O-])cc3)c3ccccc3nc2c1 showed a TGI of 22.7 µM. For O=C1C2C3C=C4c5ccccc5N(c5ccccc5)C4(C2C(=O)N1c1ccc(Cl)cc1)[C@H]1C(=O)N(c2ccc(Cl)cc2)C(=O)[C@@H]31 (stereo not given in full), the TGI was > 100 µM. With CCN(CC)CCOc1ccc(CCc2cc(OC)c(OC)c(OC)c2)cc1 the TGI was > 100 µM. With O=c1[nH]nc2ccccc2c1Cc1ccccc1 the TGI was > 100 µM. For O=C(CC(=O)C1=CNc2ccccc2S1)C(=O)Nc1ccc(Cl)cc1, the TGI was > 50 µM. In the case of Cc1oc2c(C)c3oc(=O)cc(C)c3cc2c1CN1C(=O)C2OCCOCCOCCOCCOCCO[C@H]2C1=O (stereo not given in full), the TGI is reported as > 100 µM. In the case of COC(=O)c1ccccc1OCc1cc(=O)oc2ccc(C)cc12, the TGI is reported as > 100 µM.

The molecules below were run on KM20L2 colon (assay: NCI tumour cell line growth inhibition, 48 h).
In the case of O=C1Nc2nc3ccccc3n2N=C2CCCC12 (stereo not given), the TGI is reported as > 100 µM. O=c1c2ccccc2c(=O)n2n1CC=CC2 was tested, and the TGI was > 100 µM. For c1cc2n(n1)CCN2, the TGI was > 10000 µM. O=CN/C=C/c1cccc(O)c1 was tested, and the TGI was > 100 µM. In the case of Nc1ccc2c(SCc3ccc([N+](=O)[O-])cc3)c3ccccc3nc2c1, the TGI is reported as 31.6 µM. In the case of O=C1C2C3C=C4c5ccccc5N(c5ccccc5)C4(C2C(=O)N1c1ccc(Cl)cc1)[C@H]1C(=O)N(c2ccc(Cl)cc2)C(=O)[C@@H]31 (stereo not given in full), the TGI is reported as > 100 µM. In the case of CCN(CC)CCOc1ccc(CCc2cc(OC)c(OC)c(OC)c2)cc1, the TGI is reported as > 100 µM. For O=c1[nH]nc2ccccc2c1Cc1ccccc1, the TGI was > 100 µM. For O=C(CC(=O)C1=CNc2ccccc2S1)C(=O)Nc1ccc(Cl)cc1, the TGI was > 50 µM. In the case of Cc1oc2c(C)c3oc(=O)cc(C)c3cc2c1CN1C(=O)C2OCCOCCOCCOCCOCCO[C@H]2C1=O (stereo not given in full), the TGI is reported as > 100 µM. In the case of COC(=O)c1ccccc1OCc1cc(=O)oc2ccc(C)cc12, the TGI is reported as > 100 µM.

What follows are molecules tested on LOX IMVI melanoma (assay: NCI tumour cell line growth inhibition, 48 h).
O=C1Nc2nc3ccccc3n2N=C2CCCC12 (stereo not given) was tested, and the TGI was > 100 µM. With O=c1c2ccccc2c(=O)n2n1CC=CC2 the TGI was > 100 µM. With c1cc2n(n1)CCN2 the TGI was 7690 µM. O=CN/C=C/c1cccc(O)c1 was tested, and the TGI was 69.1 µM. In the case of Nc1ccc2c(SCc3ccc([N+](=O)[O-])cc3)c3ccccc3nc2c1, the TGI is reported as 19.1 µM. With O=C1C2C3C=C4c5ccccc5N(c5ccccc5)C4(C2C(=O)N1c1ccc(Cl)cc1)[C@H]1C(=O)N(c2ccc(Cl)cc2)C(=O)[C@@H]31 (stereo not given in full) the TGI was > 100 µM. In the case of CCN(CC)CCOc1ccc(CCc2cc(OC)c(OC)c(OC)c2)cc1, the TGI is reported as 26.9 µM. With O=c1[nH]nc2ccccc2c1Cc1ccccc1 the TGI was > 100 µM. O=C(CC(=O)C1=CNc2ccccc2S1)C(=O)Nc1ccc(Cl)cc1 was tested, and the TGI was > 50 µM. Cc1oc2c(C)c3oc(=O)cc(C)c3cc2c1CN1C(=O)C2OCCOCCOCCOCCOCCO[C@H]2C1=O (stereo not given in full) was tested, and the TGI was > 100 µM. For COC(=O)c1ccccc1OCc1cc(=O)oc2ccc(C)cc12, the TGI was > 100 µM.

What follows are molecules tested on M19-MEL melanoma (assay: NCI tumour cell line growth inhibition, 48 h).
With O=C1Nc2nc3ccccc3n2N=C2CCCC12 (stereo not given) the TGI was > 100 µM. With O=c1c2ccccc2c(=O)n2n1CC=CC2 the TGI was > 100 µM. In the case of c1cc2n(n1)CCN2, the TGI is reported as > 10000 µM. For O=CN/C=C/c1cccc(O)c1, the TGI was > 100 µM. For Nc1ccc2c(SCc3ccc([N+](=O)[O-])cc3)c3ccccc3nc2c1, the TGI was 26.5 µM. For O=C1C2C3C=C4c5ccccc5N(c5ccccc5)C4(C2C(=O)N1c1ccc(Cl)cc1)[C@H]1C(=O)N(c2ccc(Cl)cc2)C(=O)[C@@H]31 (stereo not given in full), the TGI was > 100 µM. Work on CCN(CC)CCOc1ccc(CCc2cc(OC)c(OC)c(OC)c2)cc1 yielded a TGI of 53.8 µM. O=c1[nH]nc2ccccc2c1Cc1ccccc1 was tested, and the TGI was > 100 µM. For O=C(CC(=O)C1=CNc2ccccc2S1)C(=O)Nc1ccc(Cl)cc1, the TGI was > 50 µM. With Cc1oc2c(C)c3oc(=O)cc(C)c3cc2c1CN1C(=O)C2OCCOCCOCCOCCOCCO[C@H]2C1=O (stereo not given in full) the TGI was > 100 µM. COC(=O)c1ccccc1OCc1cc(=O)oc2ccc(C)cc12 was tested, and the TGI was > 100 µM.

The molecules below were run on MOLT-4 leukemia (assay: NCI tumour cell line growth inhibition, 48 h).
In the case of O=C1Nc2nc3ccccc3n2N=C2CCCC12 (stereo not given), the TGI is reported as > 100 µM. In the case of O=c1c2ccccc2c(=O)n2n1CC=CC2, the TGI is reported as > 100 µM. Molecule c1cc2n(n1)CCN2 has a TGI of 9880 µM. O=CN/C=C/c1cccc(O)c1 was tested, and the TGI was > 100 µM. For Nc1ccc2c(SCc3ccc([N+](=O)[O-])cc3)c3ccccc3nc2c1, the TGI was 6.73 µM. For O=C1C2C3C=C4c5ccccc5N(c5ccccc5)C4(C2C(=O)N1c1ccc(Cl)cc1)[C@H]1C(=O)N(c2ccc(Cl)cc2)C(=O)[C@@H]31 (stereo not given in full), the TGI was > 100 µM. CCN(CC)CCOc1ccc(CCc2cc(OC)c(OC)c(OC)c2)cc1 was tested, and the TGI was 85.2 µM. With O=c1[nH]nc2ccccc2c1Cc1ccccc1 the TGI was > 100 µM. For O=C(CC(=O)C1=CNc2ccccc2S1)C(=O)Nc1ccc(Cl)cc1, the TGI was > 50 µM. With Cc1oc2c(C)c3oc(=O)cc(C)c3cc2c1CN1C(=O)C2OCCOCCOCCOCCOCCO[C@H]2C1=O (stereo not given in full) the TGI was > 100 µM. For COC(=O)c1ccccc1OCc1cc(=O)oc2ccc(C)cc12, the TGI was > 100 µM.

The molecules below were run on SNB-19 CNS (assay: NCI tumour cell line growth inhibition, 48 h).
O=C1Nc2nc3ccccc3n2N=C2CCCC12 (stereo not given) was tested, and the TGI was > 100 µM. O=c1c2ccccc2c(=O)n2n1CC=CC2 was tested, and the TGI was > 100 µM. With c1cc2n(n1)CCN2 the TGI was > 10000 µM. In the case of O=CN/C=C/c1cccc(O)c1, the TGI is reported as > 100 µM. With Nc1ccc2c(SCc3ccc([N+](=O)[O-])cc3)c3ccccc3nc2c1 the TGI was 59.1 µM. In the case of O=C1C2C3C=C4c5ccccc5N(c5ccccc5)C4(C2C(=O)N1c1ccc(Cl)cc1)[C@H]1C(=O)N(c2ccc(Cl)cc2)C(=O)[C@@H]31 (stereo not given in full), the TGI is reported as > 100 µM. CCN(CC)CCOc1ccc(CCc2cc(OC)c(OC)c(OC)c2)cc1 was tested, and the TGI was > 100 µM. For O=c1[nH]nc2ccccc2c1Cc1ccccc1, the TGI was > 100 µM. With O=C(CC(=O)C1=CNc2ccccc2S1)C(=O)Nc1ccc(Cl)cc1 the TGI was > 50 µM. Cc1oc2c(C)c3oc(=O)cc(C)c3cc2c1CN1C(=O)C2OCCOCCOCCOCCOCCO[C@H]2C1=O (stereo not given in full) was tested, and the TGI was > 100 µM. With COC(=O)c1ccccc1OCc1cc(=O)oc2ccc(C)cc12 the TGI was 38.9 µM.

Each molecule was assayed on SNB-75 CNS (assay: NCI tumour cell line growth inhibition, 48 h).
With O=C1Nc2nc3ccccc3n2N=C2CCCC12 (stereo not given) the TGI was > 100 µM. With O=c1c2ccccc2c(=O)n2n1CC=CC2 the TGI was > 100 µM. c1cc2n(n1)CCN2 gave a TGI of 9460 µM. O=CN/C=C/c1cccc(O)c1 was tested, and the TGI was > 92.5 µM. Nc1ccc2c(SCc3ccc([N+](=O)[O-])cc3)c3ccccc3nc2c1 gave a TGI of 34.7 µM. In the case of O=C1C2C3C=C4c5ccccc5N(c5ccccc5)C4(C2C(=O)N1c1ccc(Cl)cc1)[C@H]1C(=O)N(c2ccc(Cl)cc2)C(=O)[C@@H]31 (stereo not given in full), the TGI is reported as > 100 µM. With CCN(CC)CCOc1ccc(CCc2cc(OC)c(OC)c(OC)c2)cc1 the TGI was 94.5 µM. With O=c1[nH]nc2ccccc2c1Cc1ccccc1 the TGI was > 100 µM. For O=C(CC(=O)C1=CNc2ccccc2S1)C(=O)Nc1ccc(Cl)cc1, the TGI was > 50 µM. With Cc1oc2c(C)c3oc(=O)cc(C)c3cc2c1CN1C(=O)C2OCCOCCOCCOCCOCCO[C@H]2C1=O (stereo not given in full) the TGI was > 100 µM. For COC(=O)c1ccccc1OCc1cc(=O)oc2ccc(C)cc12, the TGI was 45.5 µM.

What follows are molecules tested on UACC-257 melanoma (assay: NCI tumour cell line growth inhibition, 48 h).
In the case of O=C1Nc2nc3ccccc3n2N=C2CCCC12 (stereo not given), the TGI is reported as > 100 µM. O=c1c2ccccc2c(=O)n2n1CC=CC2 was tested, and the TGI was > 100 µM. In the case of c1cc2n(n1)CCN2, the TGI is reported as > 10000 µM. For O=CN/C=C/c1cccc(O)c1, the TGI was > 89.2 µM. With Nc1ccc2c(SCc3ccc([N+](=O)[O-])cc3)c3ccccc3nc2c1 the TGI was 33.6 µM. O=C1C2C3C=C4c5ccccc5N(c5ccccc5)C4(C2C(=O)N1c1ccc(Cl)cc1)[C@H]1C(=O)N(c2ccc(Cl)cc2)C(=O)[C@@H]31 (stereo not given in full) was tested, and the TGI was > 100 µM. CCN(CC)CCOc1ccc(CCc2cc(OC)c(OC)c(OC)c2)cc1 was tested, and the TGI was 69.9 µM. In the case of O=c1[nH]nc2ccccc2c1Cc1ccccc1, the TGI is reported as > 100 µM. In the case of O=C(CC(=O)C1=CNc2ccccc2S1)C(=O)Nc1ccc(Cl)cc1, the TGI is reported as > 50 µM. In the case of Cc1oc2c(C)c3oc(=O)cc(C)c3cc2c1CN1C(=O)C2OCCOCCOCCOCCOCCO[C@H]2C1=O (stereo not given in full), the TGI is reported as > 100 µM. For COC(=O)c1ccccc1OCc1cc(=O)oc2ccc(C)cc12, the TGI was > 100 µM.
